This is an account of results in patent EP0367033A1, “S-Difluoromethylhomocysteines, preparation process, and insecticidal compositions” (SHIONOGI SEIYAKU KABUSHIKI KAISHA, priority 1988, dated 1990).

Test [1] has as its system Myzus persicae (URR-O type), sensitive strains. Briefly: Foliar spray test on larvae of Myzus persicae, sensitive strain. The conditions noted are these: for LC50: read-out: LC₅₀ (ppm) Sensitive Strain. The class given is in vivo. The procedure: (§1) A solution of the compound is diluted with distilled water containing Tween 20® at a concentration of 100 ppm to prepare a predetermined concentration of the test solution. Malathion emulsion and pirimicarb wettable powder are diluted with distilled water to prepare a predetermined concentration of the test solution, respectively.
(§2) Myzus persicae (URR-O type) distributed from Chiba University, which were reared for succesive generations, were used as a group of sensitive strains. Myzus persicae resistant to malathion and pirimicarb which were collected from Aburahi Laboratory of Shionogi & Co., Ltd. and reared for succesive generations while selecting those resistant to these drugs were used as a group of resistant strains.
(§3) A polyethylene cup (diameter 6 cm, depth 4 cm) was filled with 0.3 % agar gel and a piece of Chinese cabbage leaf (3x3 cm) was placed on the gel. One apterous adult of Myzus persicae was put on the leaf and allowed to keep at 25 °C for 24 hours to make larviposition. After removal of the adult, 2 ml of the test solution was applied to the foliage under a rotary sprayer; and larvae of Myzus persicae was allowed to keep at 25 °C for 48 hours. Then the mortality of the larvae was determined and the value of LC₅₀ was calculated by the method of Billis. [Bliis, Ann. Appl. Biol.,22, 134;307 (1935)].

Test [2] relates to Myzus persicae resistant to malathion and pirimicarb. In words: Foliar spray test on larvae of Myzus persicae, strain resistant to malathion and pirimicarb. It counts as in vivo. Conditions: for LC50: read-out: LC₅₀ (ppm) Resistant Strain. The procedure: as §1, §2, §3
Where [3] appears, read: 7.8 ppm, larvae, 25 °C, 48 hours after spraying.
The mark [4] stands for this setting: 15.6 ppm, larvae, 25 °C, 48 hours after spraying.
Setting [5] is: 31.3 ppm, larvae, 25 °C, 48 hours after spraying.
The mark [6] stands for this setting: 62.5 ppm, larvae, 25 °C, 48 hours after spraying.
[7] abbreviates: 125 ppm, larvae, 25 °C, 48 hours after spraying.
The mark [8] stands for this setting: 250 ppm, larvae, 25 °C, 48 hours after spraying.
Setting [9] is: larvae, 48 hours, ( ) means 95 % confidence limit.

In brackets after ≈: the same amount, converted by molar mass. Read-outs that look alike come from different tables or passages of the source.

`N[C@@H](CCSC(F)F)C(=O)O` [Compound I ^a, L-difluoromethylhomocysteine]: the figures for the mortality at 7.8 ppm in test [1] (setting [3]) and in test [2] (setting [3]) were 0% and 5%, respectively. Also, the figures for the mortality at 15.6 ppm in test [1] (setting [4]) and in test [2] (setting [4]) were 8.7% and 0%, respectively. In addition, the values for the mortality at 31.3 ppm in test [1] (setting [5]) and in test [2] (setting [5]) were 4.8% and 54.2%, respectively. Further, the values for the mortality at 62.5 ppm in test [1] (setting [6]) and in test [2] (setting [6]) were 57.1% and 100%, respectively. Further, the mortality at 125 ppm in test [1] (setting [7]) and in test [2] (setting [7]) was 100% each time. Further, the mortality at 250 ppm in test [1] (setting [8]) and in test [2] (setting [8]) was 100% throughout. Besides, the LC50 was found to be 52.9 µg/mL (≈ 286 µM) in test [1] (setting [9]) and 27.1 µg/mL (≈ 146 µM) in test [2] (setting [9]).

With `CCOC(=O)CC(SP(=S)(OC)OC)C(=O)OCC` (stereo not drawn) [malathion, reference compound], the LC50 was 136 µg/mL (≈ 412 µM) in test [1] (48 h) and over 2000 µg/mL in test [2] (48 h).

Consider `Cc1nc(N(C)C)nc(OC(=O)N(C)C)c1C` [pirimicarb, reference compound], for which the LC50 is 8.2 µg/mL (≈ 34.4 µM) in test [1] (48 h) and over 1920 µg/mL in test [2] (48 h).

In general, mortality refers to the share of the test organisms that died. A higher mortality goes with a strong lethal effect.
